Measurements as given in patent US20230058189A1, “QUINOLIN-4-ONE AND 4(1H)-CINNOLINONE COMPOUNDS AND METHODS OF USING SAME” (Frequency Therapeutics, Inc., priority 2019, published 2023).

What follows are compounds tested against T1, LSD2 (Homo sapiens, UniProt Q8NB78) (assay: LSD2 A-screen (AlphaScreen) demethylase enzymatic assay). Settings: 50 μM compound; approximate values; read-out: Potency LSD-2 % Inhibition at 50 μM.
T1 sequence (Q8NB78 1-822): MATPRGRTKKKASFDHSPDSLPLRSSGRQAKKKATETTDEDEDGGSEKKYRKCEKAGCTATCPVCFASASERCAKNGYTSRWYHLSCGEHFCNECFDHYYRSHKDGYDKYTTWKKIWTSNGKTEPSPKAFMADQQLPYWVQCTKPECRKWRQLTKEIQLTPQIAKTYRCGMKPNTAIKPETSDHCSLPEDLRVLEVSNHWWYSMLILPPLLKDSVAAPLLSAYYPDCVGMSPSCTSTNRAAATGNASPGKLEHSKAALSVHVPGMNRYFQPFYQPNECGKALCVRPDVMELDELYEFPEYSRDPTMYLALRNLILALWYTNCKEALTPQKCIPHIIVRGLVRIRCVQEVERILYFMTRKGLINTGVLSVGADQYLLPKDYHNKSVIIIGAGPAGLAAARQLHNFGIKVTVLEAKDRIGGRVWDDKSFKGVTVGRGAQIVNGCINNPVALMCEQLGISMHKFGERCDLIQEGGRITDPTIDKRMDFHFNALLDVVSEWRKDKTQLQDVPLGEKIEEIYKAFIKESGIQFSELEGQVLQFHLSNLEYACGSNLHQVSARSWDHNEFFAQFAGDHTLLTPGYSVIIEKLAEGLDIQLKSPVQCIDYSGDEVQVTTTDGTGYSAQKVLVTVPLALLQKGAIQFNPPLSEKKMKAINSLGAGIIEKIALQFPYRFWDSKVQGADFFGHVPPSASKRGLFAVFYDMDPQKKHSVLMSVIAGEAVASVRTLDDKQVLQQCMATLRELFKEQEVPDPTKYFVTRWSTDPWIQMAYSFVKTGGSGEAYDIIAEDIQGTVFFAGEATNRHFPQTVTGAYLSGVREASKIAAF
Format: biochemical
Protocol: (§1) Enzymatic activities of compounds of the present disclosure can be tested with recombinant human LSD using an in vitro enzymatic assay to determine the ability of the compounds of the present disclosure to inhibit LSD-1 and LSD2. Examples of the assay are provided below.
(§2) All of the enzymatic reactions were conducted in duplicate at room temperature for 60 minutes in a 10 μL mixture containing assay buffer, histone H3 peptide substrate, demthylase enzyme, and the test compound. These 10 μL reactions were carried out in wells of a 384-well Optiplate (PerkinElmer). The dilution of the compounds was first performed in 100% DMSO with the highest concentration at 5 mM Each intermediate compound dilution (in 100% DMSO) was then directly diluted 30× fold into assay buffer for 3.3× concentration (DMSO). […] From this intermediate step, 3 μL of compound was added to 4 μL of demethylase enzyme dilution was incubated for 30 minutes at room temperature. After this incubation, 3 μL of peptide substrate was added. The final DMSO concentration was 1%. After enzymatic reactions, 5 μL of anti-Mouse or anti-Rabbit Acceptor beads (PerkinElmer, diluted 1:500 with 1× detection buffer) and […] (BPS, diluted 1:800 with 1× detection buffer) were added to the reaction mix. After brief shaking, the plate was incubated for 30 minutes. Finally, 10 μL of AlphaScreen™ Streptavidin-conjugated donor beads (Perkin, diluted 1:125 with 1× detection buffer) were added. After 30 minutes, the samples were measured in an AlphaScreen microplate reader (EnSpire Alpha 2390 Multilabel Reader, Perkin Elmer).
(§3) Enzyme activity assays were performed in duplicates at each concentration. The A-screen intensity data were analyzed and compared. In the absence of the compound, the intensity in each data set was defined as 100% (Ce) activity. In the absence of enzyme, the intensity in each data set was defined as 0% (C0) activity. The percent activity in the presence of each compound was calculated according to the following equation: % activity=(C−C0)/(Ce−C0), where C=the intensity in the presence of the compound.
(§4) The value of percent activity versus a series of compound concentrations was then plotted using non-linear regression analysis of Sigmoidal dose-response curve generated with the equation Y=B+(T−B)/1+10((LogEC50−X)×Hill Slope), where Y=percent activity, B=minimum percent activity, T=maximum percent activity, X=logarithm of compound and Hill Slope=slope factor or Hill coefficient. The IC50 value was determined by the concentration causing a half-maximal percent activity.

Point of comparison: CCn1cc(C(N)=O)c(=O)c2c(N)c(F)c(NCCc3ccccc3)cc21 [Compound I-66], inhibition at 50 µM 4%. Against it:
- CCn1cc(C(=O)O)c(=O)c2c(N)c(F)c(NCc3ccccc3)cc21 [Compound I-17] — higher, 19%
- CCn1cc(C(=O)O)c(=O)c2c(N)c(F)c(NCCc3ccccc3)cc21 [Compound I-18] — lower, 1%
- CCn1cc(C(=O)O)c(=O)c2c(N)c(F)c(NCCCc3ccccc3)cc21 [Compound I-19] — higher, 17%
- CCn1cc(C(=O)O)c(=O)c2c(N)c(F)c(N[C@@H]3C[C@H]3c3ccccc3)cc21 [Compound I-21] — lower, 0%
- CCn1cc(C(=O)O)c(=O)c2c(N)c(F)c(N[C@H]3C[C@@H]3c3ccccc3)cc21 [Compound I-22] — lower, 2%
- CCn1cc(C(=O)O)c(=O)c2c(N)cc(NCCCc3ccccc3)cc21 [Compound I-57] — higher, 42%
- CCn1cc(C(=O)O)c(=O)c2c(N)c(F)c(N[C@H]3C[C@H](c4ccccc4)C3)cc21 [Compound I-60] — the same, 4%
- CCn1cc(C(=O)O)c(=O)c2c(N)c(F)c(N[C@H]3C[C@@H](c4ccccc4)C3)cc21 [Compound I-61] — higher, 15%
- CCn1cc(C(=O)O)c(=O)c2c(N)cc(NCCc3ccccc3)c(F)c21 [Compound I-65] — higher, 38%
- CCn1cc(C#N)c(=O)c2c(N)c(F)c(NCCc3ccccc3)cc21 [Compound I-67] — the same, 4%
- CCn1cc(-c2nnn[nH]2)c(=O)c2c(N)c(F)c(NCCc3ccccc3)cc21 [Compound I-68] — higher, 96%
- CCn1cc(C(=O)O)c(=O)c2c(N)c(F)c(NC3CN(c4ccccc4)C3)cc21 [Compound I-69] — lower, 3%

These compounds were tested against GSK3β (Homo sapiens, UniProt P49841) (assay: GSK3β in vitro enzymatic assay (Kinase-Glo Max luminescence)). Settings: recombinant human GSK3, 10 μM ATP; approximate values; read-out: Potency GSK3beta.
Format: biochemical
Protocol: (§5) Enzymatic activities of compounds of the present disclosure can be tested using recombinant human GSK3 in an in vitro enzymatic assay to determine the ability of the compounds of the present disclosure to inhibit GSK3α and GSK3β.
(§6) The assay was performed using Kinase-Glo® Max luminescence kinase assay kit (Promega). The assay measures kinase activity by quantitating the amount of ATP remaining in solution following a kinase reaction. The luminescent signal from the assay is correlated with the amount of ATP present and is inversely correlated with the amount of kinase activity.
(§7) To perform the assay, compounds were diluted in 10% DMSO and 5 μl of the dilution was added to a 50 μl reaction so that the final concentration of DMSO was 1% in all of reactions. The enzymatic reactions were conducted at 30° C. for 40 minutes. The 50 μl reaction mixture contained 40 mM Tris, pH 7.4, 10 mM MgCl2, 0.1 mg/ml BSA, 2 mM DTT, 0.1 mg/ml GSK tide substrate, 10 uM ATP and GSK3. After the enzymatic reaction, 50 μl of Kinase-Glo Max Luminescence kinase assay solution (Promega) was added to each reaction and plates were incubated for 15 minutes at room temperature. Luminescence signal was measured using a BioTek Synergy 2 microplate reader.
(§8) Kinase activity assays were performed in duplicate at each concentration. The luminescence data were analyzed using the computer software, GraphPad Prism. The difference between luminescence intensities in the absence of Kinase (Lut) and in the presence of Kinase (Luc) was defined as 100% activity (Lut-Luc). Using luminescence signal (Lu) in the presence of the compound, percent activity was calculated as: % activity={(Lut-Lu)/(Lut-Luc)}×100%, where Lu=the luminescence intensity in the presence of the compound (all percent activities below zero were shown zero in the table).
as §4, with “The values” for “The value”, “concentrations were” for “concentrations was”, “The ICs,” for “The IC50”

Sequence of GSK3β (P49841 whole entry): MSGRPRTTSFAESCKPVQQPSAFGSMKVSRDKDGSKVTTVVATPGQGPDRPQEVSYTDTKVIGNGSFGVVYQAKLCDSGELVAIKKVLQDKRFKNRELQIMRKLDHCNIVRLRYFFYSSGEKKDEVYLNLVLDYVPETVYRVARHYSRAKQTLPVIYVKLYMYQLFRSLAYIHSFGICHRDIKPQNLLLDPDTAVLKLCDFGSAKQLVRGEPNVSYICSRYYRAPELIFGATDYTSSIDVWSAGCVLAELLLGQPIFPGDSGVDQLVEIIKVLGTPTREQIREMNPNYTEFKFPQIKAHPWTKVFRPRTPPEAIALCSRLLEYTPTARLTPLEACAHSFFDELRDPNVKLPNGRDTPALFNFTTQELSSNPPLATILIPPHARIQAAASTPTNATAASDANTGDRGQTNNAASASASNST

Point of comparison: CCn1cc(C#N)c(=O)c2c(N)c(F)c(NCCc3ccccc3)cc21 [Compound I-67], IC50 1.9 nM. Against it:
- CCn1cc(C(=O)O)c(=O)c2c(N)c(F)c(NCc3ccccc3)cc21 [Compound I-17] — 1100-fold higher, 2030 nM
- CCn1cc(C(=O)O)c(=O)c2c(N)c(F)c(NCCc3ccccc3)cc21 [Compound I-18] — 120-fold higher, 231 nM
- CCn1cc(C(=O)O)c(=O)c2c(N)c(F)c(NCCCc3ccccc3)cc21 [Compound I-19] — 15-fold higher, 29 nM
- CCn1cc(C(=O)O)c(=O)c2c(N)c(F)c(N[C@@H]3C[C@H]3c3ccccc3)cc21 [Compound I-21] — 180-fold higher, 334 nM
- CCn1cc(C(=O)O)c(=O)c2c(N)c(F)c(N[C@H]3C[C@@H]3c3ccccc3)cc21 [Compound I-22] — 61-fold higher, 115 nM
- CCn1cc(C(=O)O)c(=O)c2c(N)cc(NCCCc3ccccc3)cc21 [Compound I-57] — 930-fold higher, 1760 nM
- CCn1cc(C(=O)O)c(=O)c2c(N)c(F)c(N[C@H]3C[C@H](c4ccccc4)C3)cc21 [Compound I-60] — 16-fold higher, 31 nM
- CCn1cc(C(=O)O)c(=O)c2c(N)c(F)c(N[C@H]3C[C@@H](c4ccccc4)C3)cc21 [Compound I-61] — 140-fold higher, 268 nM
- CCn1cc(C(=O)O)c(=O)c2c(N)cc(NCCc3ccccc3)c(F)c21 [Compound I-65] — higher, > 10000 nM
- CCn1cc(C(N)=O)c(=O)c2c(N)c(F)c(NCCc3ccccc3)cc21 [Compound I-66] — within 1.5-fold, 2.5 nM
- CCn1cc(-c2nnn[nH]2)c(=O)c2c(N)c(F)c(NCCc3ccccc3)cc21 [Compound I-68] — 370-fold higher, 711 nM
- CCn1cc(C(=O)O)c(=O)c2c(N)c(F)c(NC3CN(c4ccccc4)C3)cc21 [Compound I-69] — 27-fold higher, 52 nM

What follows are compounds tested against LSD-1 (Homo sapiens, UniProt O60341) (assay: LSD-1 A-screen (AlphaScreen) demethylase enzymatic assay). Settings: 50 μM compound; approximate values; read-out: Potency LSD-1 % Inhibition at 50 μM.
Format: biochemical
Protocol: as §1, §2, §3, §4

Point of comparison: CCn1cc(C(=O)O)c(=O)c2c(N)c(F)c(N[C@H]3C[C@H](c4ccccc4)C3)cc21 [Compound I-60], inhibition at 50 µM 15%. Against it:
- CCn1cc(C(=O)O)c(=O)c2c(N)c(F)c(NCc3ccccc3)cc21 [Compound I-17] — lower, 2%
- CCn1cc(C(=O)O)c(=O)c2c(N)c(F)c(NCCc3ccccc3)cc21 [Compound I-18] — lower, 11%
- CCn1cc(C(=O)O)c(=O)c2c(N)c(F)c(NCCCc3ccccc3)cc21 [Compound I-19] — higher, 27%
- CCn1cc(C(=O)O)c(=O)c2c(N)c(F)c(N[C@@H]3C[C@H]3c3ccccc3)cc21 [Compound I-21] — higher, 19%
- CCn1cc(C(=O)O)c(=O)c2c(N)c(F)c(N[C@H]3C[C@@H]3c3ccccc3)cc21 [Compound I-22] — lower, 11%
- CCn1cc(C(=O)O)c(=O)c2c(N)cc(NCCCc3ccccc3)cc21 [Compound I-57] — higher, 83%
- CCn1cc(C(=O)O)c(=O)c2c(N)c(F)c(N[C@H]3C[C@@H](c4ccccc4)C3)cc21 [Compound I-61] — higher, 26%
- CCn1cc(C(=O)O)c(=O)c2c(N)cc(NCCc3ccccc3)c(F)c21 [Compound I-65] — higher, 88%
- CCn1cc(C(N)=O)c(=O)c2c(N)c(F)c(NCCc3ccccc3)cc21 [Compound I-66] — lower, 6%
- CCn1cc(C#N)c(=O)c2c(N)c(F)c(NCCc3ccccc3)cc21 [Compound I-67] — lower, 8%
- CCn1cc(-c2nnn[nH]2)c(=O)c2c(N)c(F)c(NCCc3ccccc3)cc21 [Compound I-68] — lower, 0%
- CCn1cc(C(=O)O)c(=O)c2c(N)c(F)c(NC3CN(c4ccccc4)C3)cc21 [Compound I-69] — higher, 17%

What follows are compounds tested against GSK3α (Homo sapiens, UniProt P49840) (assay: GSK3α in vitro enzymatic assay (Kinase-Glo Max luminescence)). Settings: recombinant human GSK3, 10 μM ATP; approximate values; read-out: Potency GSK3alpha.
Format: biochemical
Protocol: as §5, §6, §7, §8
as §4, with “The values” for “The value”, “concentrations were” for “concentrations was”, “The ICs,” for “The IC50”

Sequence of GSK3α (P49840 whole entry): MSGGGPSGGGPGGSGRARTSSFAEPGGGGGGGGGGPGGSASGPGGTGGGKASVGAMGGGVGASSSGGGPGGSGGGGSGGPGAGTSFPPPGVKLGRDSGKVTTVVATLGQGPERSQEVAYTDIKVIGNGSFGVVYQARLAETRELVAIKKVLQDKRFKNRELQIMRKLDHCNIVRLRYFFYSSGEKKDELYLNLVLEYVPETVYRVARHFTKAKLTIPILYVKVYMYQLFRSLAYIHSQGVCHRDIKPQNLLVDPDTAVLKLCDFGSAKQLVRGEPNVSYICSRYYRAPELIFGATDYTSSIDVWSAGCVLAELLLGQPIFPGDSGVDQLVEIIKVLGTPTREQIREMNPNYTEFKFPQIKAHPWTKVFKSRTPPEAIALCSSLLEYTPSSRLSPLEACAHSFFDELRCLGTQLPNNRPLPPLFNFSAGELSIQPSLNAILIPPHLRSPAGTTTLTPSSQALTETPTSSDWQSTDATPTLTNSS

Point of comparison: CCn1cc(C(=O)O)c(=O)c2c(N)c(F)c(N[C@H]3C[C@@H](c4ccccc4)C3)cc21 [Compound I-61], IC50 72 nM. Against it:
- CCn1cc(C(=O)O)c(=O)c2c(N)c(F)c(NCc3ccccc3)cc21 [Compound I-17] — 9.2-fold higher, 659 nM
- CCn1cc(C(=O)O)c(=O)c2c(N)c(F)c(NCCc3ccccc3)cc21 [Compound I-18] — 1.7-fold higher, 121 nM
- CCn1cc(C(=O)O)c(=O)c2c(N)c(F)c(NCCCc3ccccc3)cc21 [Compound I-19] — 3.8-fold lower, 19 nM
- CCn1cc(C(=O)O)c(=O)c2c(N)c(F)c(N[C@@H]3C[C@H]3c3ccccc3)cc21 [Compound I-21] — 5.4-fold higher, 392 nM
- CCn1cc(C(=O)O)c(=O)c2c(N)c(F)c(N[C@H]3C[C@@H]3c3ccccc3)cc21 [Compound I-22] — 1.9-fold higher, 137 nM
- CCn1cc(C(=O)O)c(=O)c2c(N)cc(NCCCc3ccccc3)cc21 [Compound I-57] — 11-fold higher, 762 nM
- CCn1cc(C(=O)O)c(=O)c2c(N)c(F)c(N[C@H]3C[C@H](c4ccccc4)C3)cc21 [Compound I-60] — 2.2-fold lower, 32 nM
- CCn1cc(C(=O)O)c(=O)c2c(N)cc(NCCc3ccccc3)c(F)c21 [Compound I-65] — higher, > 10000 nM
- CCn1cc(C(N)=O)c(=O)c2c(N)c(F)c(NCCc3ccccc3)cc21 [Compound I-66] — 28-fold lower, 2.6 nM
- CCn1cc(C#N)c(=O)c2c(N)c(F)c(NCCc3ccccc3)cc21 [Compound I-67] — 36-fold lower, 2 nM
- CCn1cc(-c2nnn[nH]2)c(=O)c2c(N)c(F)c(NCCc3ccccc3)cc21 [Compound I-68] — 8.1-fold higher, 581 nM
- CCn1cc(C(=O)O)c(=O)c2c(N)c(F)c(NC3CN(c4ccccc4)C3)cc21 [Compound I-69] — within 1.5-fold, 61 nM
